Measured values reported in patent publication US20060121083A1 (priority 2003, published 2006).
Converted amounts (≈) assume the structure as drawn. Read-outs that look alike come from different tables or passages of the source. Ends that are not written are not given here.

Key:
[1] = tested on: Methicillin-resistant S. aureus ATCC 43300; test: MIC by microbroth dilution method, MRSA; format: cell-based; details: broth-micro dilution
Procedure: (§1) Bacterial strains: Methicillin-resistant S. aureus (abbreviated […]) ATCC 43300 was commercially purchased from Oxoid S.p.A., Milan, Italy. Methicillin-resistant S. epidermidis (abbreviated MRSE) is a clinical strain from the Institute of Infectious Diseases and Public Health, University of Ancona, Italy.
(§2) Bacterial strain antibiotic suscepdbilty analysis: The antimicrobial susceptibilities of the bacterial strains were determined by using the microbroth dilution method, according to the procedures outlined by the National Committee for Clinical Laboratory Standards (U.S.A.). The minimal inhibitory concentration (MIC) was taken as the lowest antibiotic concentration at which observable growth was inhibited. Experiments were performed in triplicate.
(§3) Statistical analysis: MIC values are presented as the geometric mean of three separate experiments. […] Significance was accepted when the P value was less than/equal to 0.05.

[2] = tested on: Methicillin-resistant S. epidermidis clinical strain; test: MIC by microbroth dilution method, MRSE; format: cell-based; details: broth-micro dilution
Procedure: as §1, §2, §3

[3] = tested on: methicillin-resistant S. aureus (MRSA); format: in vivo; details: rats, MRSA challenge
Excerpt: (§4) Animals: Adult male Wistar rats, 250-300 gr (I.N.R.C.A. I.R.R.C.S. animal facility, Ancona) were used, with 15 animals per experimental group.
(§5) Mammalian graft infection model: Rats were anesthetized and their hair of the back was shaved and the skin cleansed with 10 percent povidone-iodine solution. One subcutaneous pocket was made on each side of the median line by a 1.5 cm incision. Aseptically, 1 square centimeter sterile albumin-sealed Dacron™ grafts (Albograft™, Sorin Biomedica Cardio, S.p.A., Saluggia VC, Italy) were implanted into the pockets. Prior to implantation grafts were soaked for 20 minutes in sterile antibiotic solutions. The pockets were closed by means of skin clips and saline solution (1 mL) containing methicillin-resistant S. aureus (MRSA) or S. epidermidis (MRSE) at a concentration of 2×10^7 colony-forming units (CFU)/mL was inoculated onto the graft surface by using a tuberculin syringe to create a subcutaneous fluid-filled pocket. The animals were returned to individual cages and thoroughly examined daily. All grafts were explanted at 7 days following implantation.
(§6) Assessment of the infection: The explanted grafts were placed in sterile tubes, washed in sterile saline solution, placed in tubes containing 10 mL of phosphate-buffered saline solution and sonicated for 5 minutes to remove the adherent bacteria from the grafts (Balaban, N. et al, 2003. Kidney Int. 63: 340-345). Quantitation of viable staphylococci was performed by culturing serial dilutions (0.1 mL) of the bacterial suspensions on blood agar plates at 37 degrees centigrade for 48 hours. The organisms were quantitated by counting the number of colony-forming units (CFUs) per plate. The limit of detection for this method was approximately 10 CFU/mL.
as §3

[4] = tested on: methicillin-resistant S. epidermidis (MRSE); format: in vivo; details: rats, MRSE challenge
Excerpt: as §4, §5, §6, §3

[5] = tested on: S. aureus cells; test: Bacterial growth (CFU) of S. aureus culture grown with peptides; format: cell-based; details: in-vitro culture grown 2.5 hours with peptide, FIG. 5a
Procedure: (§7) RNAIII synthesis and bacterial growth: Cultures of S. aureus (20 million cells in a volume of 30 microliters) containing an expression construct for expression of the fusion protein maiii::blaZ (described in Gov, Y. et al., 2001. Peptides. 22: 1609-20 were grown for 2.5 hours with 5 microliters peptide solution or control buffer. A 5 microliter sample was taken from the cultures, diluted in saline, and streaked on LB agar plates to quantitate CFUs. The remainder of the cultures were used to determine RNAIII synthesis (beta-lactamase activity). This was performed by adding a substrate of beta-lactamase (nitrocefin), and determining OD 490 nm/OD 650 nm, as previously described (Gov, Y. et al., 2001. Peptides. 22: 1609-20).

[6] = tested on: RNAIII synthesis; test: RNAIII synthesis (beta-lactamase reporter, nitrocefin); format: cell-based, S. aureus; details: FIG. 5b; at high peptide concentrations mostly attributable to cell death
Procedure: as §7

[7] = graft pre-soaked with 5 micrograms/mL rifampin alone
[8] = graft pre-soaked with 5 micrograms/mL rifampin alone, 7 days
[9] = graft presoaked in 10 micrograms/mL peptide, explanted at 7 days
[10] = graft presoaked in 20 micrograms/mL peptide, explanted at 7 days
[11] = graft presoaked in 50 micrograms/mL peptide, explanted at 7 days

Compound	MIC ([1]; Staphylococcus aureus, read-out: MIC) [µg/mL]	MIC ([2]; Staphylococcus epidermidis, read-out: MIC) [µg/mL]	Reduction in bacterial CFU compared to control [3, 7]	Graft bacterial load (quantitative culture) [3, 8]	Reduction in numbers of PFUs compared to control [4, 7]	Graft bacterial load (quantitative culture) [4, 8]	MIC [1] [micrograms/mL]	MIC [2] [micrograms/mL]	Graft bacterial load (quantitative culture) [3, 9]	Graft bacterial load (quantitative culture) [3, 10]	Graft bacterial load (quantitative culture) [3, 11]	Graft bacterial load (quantitative culture) [4, 9]	Graft bacterial load (quantitative culture) [4, 10]	Graft bacterial load (quantitative culture) [4, 11]	Bactericidal activity (CFU counts) [5]	Inhibition of RNAIII synthesis [6]
CO[C@H]1/C=C/O[C@@]2(C)Oc3c(C)c(O)c4c(O)c(c(/C=N/N5CCN(C)CC5)c(O)c4c3C2=O)NC(=O)/C(C)=C\C=C\[C@H](C)[C@H](O)[C@@H](C)[C@@H](O)[C@@H](C)[C@H](OC(C)=O)[C@@H]1C [rifampin]	0.5 (≈ 0.608 µM)	0.5 (≈ 0.608 µM)	about 50%	6.7×10^3±9.1×10^2 CFU/mL	about 50%	8.8×10^2±3.0×10^2 CFU/mL										
YSPWTNF (YSPWTNF-NH2) [RIP]							> 128	> 128	4.1×10^4±7.1×10^3 CFU/ml	5.9×10^3±1.7×10^3 CFU/ml	8.4×10^1±3.6×10^1 CFU/ml	6.9×10^3±1.9×10^3 CFU/ml	8.5×10^2±2.0×10^2 CFU/ml	3.9×10^1±1.6×10^1 CFU/ml	virtually inactive	efficiently inhibited RNAIII synthesis
